Assays:
[1] = system: U-937 (histiocytic lymphoma); test: alamarBlue anti-proliferation assay, Lymphoma U-937; assay type: cell-based, human; settings: for Percent Growth (Mean ± SEM, n = 2): 72 hour
Method: (§1) The growth effects of compound 29 was tested on 8 different human tumour cell lines. Changes in cell proliferation based on the ability of viable cells to cause alamar Blue to change from its oxidized (non-fluorescent, blue) to a reduced (fluorescent, red) form were evaluated. With the results obtained from the alamarBlue reaction, cell proliferation was quantified and metabolic activity of viable cells examined. Test compound, (29), was tested for its effect on the proliferation of 8 different human tumor cell lines at five final assay concentrations from 100 to 0.01 μM through serial 10-fold dilutions, respectively.
(§2) Compound 29 was dissolved in 100% ethanol and then diluted with Phosphate Buffer Saline (PBS, pH=7.4) to obtain initial working solutions of 10000, 1000, 100, 10 and 1 μM in 40% ethanol. In testing, 100-fold dilution was made in culture media to get final assay concentrations of 100, 10, 1, 0.1 and 0.01 μM in 0.4% of ethanol.
(§3) Aliquots of 100 μl of cell suspension (about 2.5-5×10^3/well) were placed in 96well microtiter plates in an atmosphere of 5% CO2 at 37° C. After 24 hours, 100 μl of growth medium, 2 μL of test solution or vehicle (40% DMSO), was added respectively per well in duplicate for an additional 72 hour incubation. Thus, the final concentration of DMSO was 0.4%. The test compound was evaluated at concentrations of 100, 10, 1, 0.1 and 0.01 μM. At the end of the incubation, 20 μL of alamarBlue 75% reagent was added to each well for another 6-hour incubation before detection of cell viability by fluorescent intensity. Fluorescent intensity was measured using a Spectrafluor Plus plate reader with excitation at 530 nm and emission at 590 nm.
(§4) PG(%)=100×(Mean Ftest−Mean Ftime0)/(Mean Fctrl−Mean Ftime0).
(§5) PG(%)=100×(Mean Ftest−Mean Ftime0)/(Mean Ftime0−Mean Fblank)
(§6) A decrease of 50% or more (≧50%) in fluorescent intensity relative to vehicle-treated control indicated significant cytostatic or cytotoxic activity, and a semi-quantitative IC50, TGI and LC50 were then determined by nonlinear regression using GraphPad Prism (GraphPad Software, U.S.A.).
(§7) IC50 (50% Inhibition Concentration): Test Compound concentration at which the increase from time0 in the number or mass of treated cells was only 50% as much as the corresponding increase in the vehicle-control at the end of experiment.
(§8) TGI (Total Growth Inhibition): Test compound concentration at which the number or mass of treated cells at the end of the experiment was equal to that at time0.
(§9) LC50 (50% Lethal Concentration): Test compound concentration at which the number of mass of treated cells at the end of the experiment was half that at time0.

[2] = system: KB-16 (human nasopharyngeal carcinoma); test: Growth inhibition of tumor cell line KB-16 (Table 1); assay type: cell-based; settings: 3 day drug exposure; columns A/B = scaffold type
PC-6 (lung carcinoma) = test: alamarBlue anti-proliferation assay, Lung PC-6; assay type: cell-based, human; settings: for Percent Growth (Mean ± SEM, n = 2): 72 hour
Method: as §1, §2, §3, §4, §5, §6, §7, §8, §9

[3] = system: HT-29 (colon adenocarcinoma); test: alamarBlue anti-proliferation assay, Colon HT-29; assay type: cell-based, human; settings: for Percent Growth (Mean ± SEM, n = 2): 72 hour
Method: as §1, §2, §3, §4, §5, §6, §7, §8, §9

[4] = system: HL-60 (promyelocytic leukemia); test: alamarBlue anti-proliferation assay, Leukemia HL-60; assay type: cell-based, human; settings: for Percent Growth (Mean ± SEM, n = 2): 72 hour
Method: as §1, §2, §3, §4, §5, §6, §7, §8, §9

P-388 (murine leukemia) = test: Growth inhibition of tumor cell line P-388 (Table 1); assay type: cell-based; settings: 3 day drug exposure; columns A/B = scaffold type
[5] = system: MCF-7 (breast adenocarcinoma); test: alamarBlue anti-proliferation assay, Breast MCF-7; assay type: cell-based, human; settings: for Percent Growth (Mean ± SEM, n = 2): 72 hour
Method: as §1, §2, §3, §4, §5, §6, §7, §8, §9

[6] = system: PC-3 (prostate adenocarcinoma); test: alamarBlue anti-proliferation assay, Prostate PC-3; assay type: cell-based, human; settings: for Percent Growth (Mean ± SEM, n = 2): 72 hour
Method: as §1, §2, §3, §4, §5, §6, §7, §8, §9

[7] = system: HT-29 (human colon adenocarcinoma); test: Growth inhibition of tumor cell line HT-29 (Table 1); assay type: cell-based; settings: 6 day drug exposure; columns A/B = scaffold type
[8] = system: T47D (breast ductal carcinoma); test: alamarBlue anti-proliferation assay, Breast T47D; assay type: cell-based, human; settings: 72 hour
Method: as §1, §2, §3, §4, §5, §6, §7, §8, §9

[9] = system: HepG2 (hepatoblastoma, liver); test: alamarBlue anti-proliferation assay, Liver HepG2; assay type: cell-based, human; settings: for Percent Growth (Mean ± SEM, n = 2): 72 hour
Method: as §1, §2, §3, §4, §5, §6, §7, §8, §9

[10] = system: A-549 (human lung adenocarcinoma); test: Growth inhibition of tumor cell line A-549 (Table 1); assay type: cell-based; settings: 6 day drug exposure; columns A/B = scaffold type

CCn1c2ccccc2c2cc(C3=NCCc4c3[nH]c3ccccc43)ccc21 [Compound 29, 1-(9′-Ethyl-3′-carbazole)-3,4-dihydro-β-carboline]
Percent Growth (Mean ± SEM, n = 2) ([1]; U-937, 0.01 μM): 103 ± 3%
Percent Growth (Mean ± SEM, n = 2) ([1]; U-937, 0.1 μM): 97 ± 6%
Percent Growth (Mean ± SEM, n = 2) ([1]; U-937, 1 μM): 90 ± 2%
Percent Growth (Mean ± SEM, n = 2) ([1]; U-937, 10 μM): −3 ± 4%
Percent Growth (Mean ± SEM, n = 2) ([1]; U-937, 100 μM): −93 ± 0%
Estimated TGI (Total Growth Inhibition) ([1]; U-937, 72 hour, semi-quantitative): 7.9 µM
IC50 ([1]; U-937, 72 hour, semi-quantitative, read-out: Estimated IC50 (50% Inhibition Concentration)): 3.5 µM
LC50 (50% lethal concentration) ([1]; U-937, 72 hour, semi-quantitative, read-out: Estimated cIC50 (footnote c: LC50, 50% Lethal Concentration)): 18.3 µM
IC50, concentration inhibiting 50% of the growth of KB-16 [2]: <1 ng/mL
Percent Growth (Mean ± SEM, n = 2) (PC-6 (lung carcinoma); PC-6, 0.01 μM): 101 ± 1%
Percent Growth (Mean ± SEM, n = 2) (PC-6 (lung carcinoma); PC-6, 0.1 μM): 97 ± 5%
Percent Growth (Mean ± SEM, n = 2) (PC-6 (lung carcinoma); PC-6, 1 μM): 95 ± 5%
Percent Growth (Mean ± SEM, n = 2) (PC-6 (lung carcinoma); PC-6, 10 μM): 24 ± 2%
Percent Growth (Mean ± SEM, n = 2) (PC-6 (lung carcinoma); PC-6, 100 μM): −79 ± 11%
Estimated TGI (Total Growth Inhibition) (PC-6 (lung carcinoma); PC-6, 72 hour, semi-quantitative): 12.5 µM
IC50 (PC-6 (lung carcinoma); PC-6, 72 hour, semi-quantitative, read-out: Estimated IC50 (50% Inhibition Concentration)): 5 µM
LC50 (50% lethal concentration) (PC-6 (lung carcinoma); PC-6, 72 hour, semi-quantitative, read-out: Estimated cIC50 (footnote c: LC50, 50% Lethal Concentration)): 32.5 µM
Percent Growth (Mean ± SEM, n = 2) ([3]; HT-29, 0.01 μM): 97 ± 4%
Percent Growth (Mean ± SEM, n = 2) ([3]; HT-29, 0.1 μM): 101 ± 8%
Percent Growth (Mean ± SEM, n = 2) ([3]; HT-29, 1 μM): 85 ± 3%
Percent Growth (Mean ± SEM, n = 2) ([3]; HT-29, 10 μM): −30 ± 15%
Percent Growth (Mean ± SEM, n = 2) ([3]; HT-29, 100 μM): −94 ± 3%
Estimated TGI (Total Growth Inhibition) ([3]; HT-29, 72 hour, semi-quantitative): 5.2 µM
IC50 ([3]; HT-29, 72 hour, semi-quantitative, read-out: Estimated IC50 (50% Inhibition Concentration)): 2.3 µM
LC50 (50% lethal concentration) ([3]; HT-29, 72 hour, semi-quantitative, read-out: Estimated cIC50 (footnote c: LC50, 50% Lethal Concentration)): 11.7 µM
Percent Growth (Mean ± SEM, n = 2) ([4]; HL-60, 0.01 μM): 99 ± 2%
Percent Growth (Mean ± SEM, n = 2) ([4]; HL-60, 0.1 μM): 90 ± 6%
Percent Growth (Mean ± SEM, n = 2) ([4]; HL-60, 1 μM): 73 ± 5%
Percent Growth (Mean ± SEM, n = 2) ([4]; HL-60, 10 μM): 9 ± 3%
Percent Growth (Mean ± SEM, n = 2) ([4]; HL-60, 100 μM): −100 ± 2%
Estimated TGI (Total Growth Inhibition) ([4]; HL-60, 72 hour, semi-quantitative): 8.3 µM
IC50 ([4]; HL-60, 72 hour, semi-quantitative, read-out: Estimated IC50 (50% Inhibition Concentration)): 3.2 µM
LC50 (50% lethal concentration) ([4]; HL-60, 72 hour, semi-quantitative, read-out: Estimated cIC50 (footnote c: LC50, 50% Lethal Concentration)): 22 µM
IC50, concentration inhibiting 50% of the growth of P-388 (P-388 (murine leukemia)): < 1 ng/mL
Percent Growth (Mean ± SEM, n = 2) ([5]; MCF-7, 0.01 μM): 97 ± 1%
Percent Growth (Mean ± SEM, n = 2) ([5]; MCF-7, 0.1 μM): 94 ± 7%
Percent Growth (Mean ± SEM, n = 2) ([5]; MCF-7, 1 μM): 85 ± 8%
Percent Growth (Mean ± SEM, n = 2) ([5]; MCF-7, 10 μM): −48 ± 11%
Percent Growth (Mean ± SEM, n = 2) ([5]; MCF-7, 100 μM): −100 ± 0%
Estimated TGI (Total Growth Inhibition) ([5]; MCF-7, 72 hour, semi-quantitative): 4.2 µM
IC50 ([5]; MCF-7, 72 hour, semi-quantitative, read-out: Estimated IC50 (50% Inhibition Concentration)): 2 µM
LC50 (50% lethal concentration) ([5]; MCF-7, 72 hour, semi-quantitative, read-out: Estimated cIC50 (footnote c: LC50, 50% Lethal Concentration)): 8.3 µM
Percent Growth (Mean ± SEM, n = 2) ([6]; PC-3, 0.01 μM): 100 ± 1%
Percent Growth (Mean ± SEM, n = 2) ([6]; PC-3, 0.1 μM): 94 ± 3%
Percent Growth (Mean ± SEM, n = 2) ([6]; PC-3, 1 μM): 82 ± 4%
Percent Growth (Mean ± SEM, n = 2) ([6]; PC-3, 10 μM): −17 ± 9%
Percent Growth (Mean ± SEM, n = 2) ([6]; PC-3, 100 μM): −93 ± 1%
Estimated TGI (Total Growth Inhibition) ([6]; PC-3, 72 hour, semi-quantitative): 6.2 µM
IC50 ([6]; PC-3, 72 hour, semi-quantitative, read-out: Estimated IC50 (50% Inhibition Concentration)): 2.5 µM
LC50 (50% lethal concentration) ([6]; PC-3, 72 hour, semi-quantitative, read-out: Estimated cIC50 (footnote c: LC50, 50% Lethal Concentration)): 15 µM
IC50, concentration inhibiting 50% of the growth of HT-29 [7]: <1 ng/mL
Percent Growth (Mean ± SEM, n = 2) ([8]; 0.01 μM): 92 ± 2%
Percent Growth (Mean ± SEM, n = 2) ([8]; 0.1 μM): 88 ± 6%
Percent Growth (Mean ± SEM, n = 2) ([8]; 1 μM): 89 ± 3%
Percent Growth (Mean ± SEM, n = 2) ([8]; 10 μM): 25 ± 3%
Percent Growth (Mean ± SEM, n = 2) ([8]; 100 μM): −100 ± 4%
Estimated TGI (Total Growth Inhibition) ([8]; semi-quantitative): 10.8 µM
IC50 ([8]; semi-quantitative, read-out: Estimated IC50 (50% Inhibition Concentration)): 6 µM
LC50 (50% lethal concentration) ([8]; semi-quantitative, read-out: Estimated cIC50 (footnote c: LC50, 50% Lethal Concentration)): 19.2 µM
Percent Growth (Mean ± SEM, n = 2) ([9]; HepG2, 0.01 μM): 106 ± 2%
Percent Growth (Mean ± SEM, n = 2) ([9]; HepG2, 0.1 μM): 96 ± 11%
Percent Growth (Mean ± SEM, n = 2) ([9]; HepG2, 1 μM): 81 ± 4%
Percent Growth (Mean ± SEM, n = 2) ([9]; HepG2, 10 μM): −27 ± 7%
Percent Growth (Mean ± SEM, n = 2) ([9]; HepG2, 100 μM): −100 ± 3%
Estimated TGI (Total Growth Inhibition) ([9]; HepG2, 72 hour, semi-quantitative): 5.2 µM
IC50 ([9]; HepG2, 72 hour, semi-quantitative, read-out: Estimated IC50 (50% Inhibition Concentration)): 2.2 µM
LC50 (50% lethal concentration) ([9]; HepG2, 72 hour, semi-quantitative, read-out: Estimated cIC50 (footnote c: LC50, 50% Lethal Concentration)): 12.5 µM
IC50, concentration inhibiting 50% of the growth of A-549 [10]: <1 ng/mL

— patent US6720331B2, “1-substituted 1,2,3,4-tetrahydro-β-carboline and 3,4-dihydro-β-carboline and analogs as antitumor agents” (National Sun Yat-sen University, priority 2001, dated 2004)
